Test results reported in patent US10662187B2, “Bruton's tyrosine kinase inhibitors” (Zibo Biopolar Changsheng Pharmaceutical Co. Ltd., priority 2016, dated 2020).

What was measured:
Ramos cells = test: Calcium flux assay, anti-IgM stimulated Ramos cells; format: cell-based; conditions: Ramos cells stimulated with goat anti-human IgM antibody 10 μg/ml; read-out: Ramos Ca Flux
Description: Calcium FluxAssay Calcium flux fluorescence-based assays were performed in […] (Hamamatsu Photonics) fluorometric imaging plate reader according to manufacturer instructions. […] Then 12.5 […] 2× dye loading solution (Fluo-4 NW Calcium Assay Kits, Invitrogen) was added per well of a 384-well plate. Afterwards, actively growing Ramos cells (ATCC) in RPM1640 medium supplemented with 10% FBS (Invitrogen) were washed and re-plated in assay buffer (from Fluo-4 NW Calcium Assay Kits, Invitrogen) to approximately 6.4×10^6/ml (80000 cells/12.5 μL in 384-well plates). The plates were incubated at 37° C. for 30 minutes, then at room temperature for an additional 30 minutes. The plates were now ready to be used in an experiment. Immediately after the transfer and a 10-s recording of baseline fluorescence, the compound treated cells were stimulated with a goat anti-human IgM antibody (10 μg/ml; Jackson Immuno Research) and read in a FDSS for 240 seconds. Difference between the signal and that at baseline, designated adjusted relative fluorescence unit, was calculated by using a custom Excel (Microsoft, Redmond, Wash.) template to determine IgM-induced calcium influx and its inhibition by compounds. The table belows show the result.

BTK [1] = biological target: T1, BTK (Homo sapiens (Human), UniProt Q06187); test: Btk kinase assay (HTRF); format: biochemical; conditions: [ATP]=80 μM, BTK=3.4 nM; read-out: BTK Inhibition
How it was run: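 HTRF read-out with enzyme, inhibitor, ATP and 1 μM peptide substrate in 50 mM Hepes pH 7.0, 0.02% NaN3, 0.01% BSA, 0.1 mM orthovanadate. Activity measured across compound concentrations against no-inhibitor controls, with no-enzyme wells as baseline.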
Target sequence in this assay (Q06187 whole entry, species assumed): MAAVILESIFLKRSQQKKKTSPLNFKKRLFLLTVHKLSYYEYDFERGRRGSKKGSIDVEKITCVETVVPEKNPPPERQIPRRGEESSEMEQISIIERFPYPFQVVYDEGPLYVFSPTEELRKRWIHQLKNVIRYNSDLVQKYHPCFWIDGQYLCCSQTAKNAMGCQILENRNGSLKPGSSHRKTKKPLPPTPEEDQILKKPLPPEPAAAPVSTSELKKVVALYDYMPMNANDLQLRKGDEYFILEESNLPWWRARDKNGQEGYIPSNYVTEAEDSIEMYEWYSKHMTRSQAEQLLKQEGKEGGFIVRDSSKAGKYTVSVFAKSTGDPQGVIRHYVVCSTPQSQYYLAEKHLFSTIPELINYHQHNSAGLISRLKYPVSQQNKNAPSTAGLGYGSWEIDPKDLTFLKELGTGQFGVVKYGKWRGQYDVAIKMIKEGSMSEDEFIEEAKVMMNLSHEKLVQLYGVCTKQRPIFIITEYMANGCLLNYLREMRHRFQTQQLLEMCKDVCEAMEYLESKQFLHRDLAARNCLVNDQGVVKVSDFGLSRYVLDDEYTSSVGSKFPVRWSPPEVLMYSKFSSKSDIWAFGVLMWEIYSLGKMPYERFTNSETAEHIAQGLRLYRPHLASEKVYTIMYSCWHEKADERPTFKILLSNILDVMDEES

Btk [2] = biological target: Btk (Mus musculus (Mouse), UniProt P35991); test: Btk occupancy in vivo (PBMCs or splenocytes, PCI-33380 labeling); conditions: after 4 hours, Babc/L mice
Description: For analysis of Btk occupancy in Babc/L mice following oral dosing of compounds after 4 hours. Isolating peripheral blood mononuclear cells (PBMCs) with mouse peripheral blood separation kit (Hao Yang Biological Manufacture CO., LTD, Tianjin) were collected from Babc/L mice (1 ml blood from two mice). Spleens were processed to splenocytes followed by 5 min incubation in red blood cell lysing buffer (from mouse peripheral blood separation kit). PBMCs or splenocytes were then PCI-33380-labeled and lysates analyzed by fluorescent gel scanning as described in cellular assays.

BTK [3] = biological target: T1, BTK; test: Btk occupancy in cellular assays (PCI-33380 labeling, Jeko-1 cells); format: cell-based; conditions: 1.5 h pre-incubation with compound, PCI-33380 5 μM 1 h
Description: Btk Occupancy in Cellular Assays
For PCI-33380 labeling of human B cells, 10^6 Jeko-1 cells were pre-incubated with compound for 1.5 h before labeling. Then cells were treated with PCI-33380 at 5 μM for 1 h. Washed, lysed in Ripa buffer containing sample reducing agent, and analyzed by SDS/PAGE and fluorescent gel scanning using a Typhoon scanner 9500 (GE Healthcare) (Ex, 532 nm; Em, 555 nm). The gel was then blotted and total Btk levels detected by standard Western blot with Btk antibody (CST).
Target sequence in this assay (Q06187 whole entry): as the sequence (Q06187 whole entry, species assumed) above

Chain of Btk (P35991 whole entry): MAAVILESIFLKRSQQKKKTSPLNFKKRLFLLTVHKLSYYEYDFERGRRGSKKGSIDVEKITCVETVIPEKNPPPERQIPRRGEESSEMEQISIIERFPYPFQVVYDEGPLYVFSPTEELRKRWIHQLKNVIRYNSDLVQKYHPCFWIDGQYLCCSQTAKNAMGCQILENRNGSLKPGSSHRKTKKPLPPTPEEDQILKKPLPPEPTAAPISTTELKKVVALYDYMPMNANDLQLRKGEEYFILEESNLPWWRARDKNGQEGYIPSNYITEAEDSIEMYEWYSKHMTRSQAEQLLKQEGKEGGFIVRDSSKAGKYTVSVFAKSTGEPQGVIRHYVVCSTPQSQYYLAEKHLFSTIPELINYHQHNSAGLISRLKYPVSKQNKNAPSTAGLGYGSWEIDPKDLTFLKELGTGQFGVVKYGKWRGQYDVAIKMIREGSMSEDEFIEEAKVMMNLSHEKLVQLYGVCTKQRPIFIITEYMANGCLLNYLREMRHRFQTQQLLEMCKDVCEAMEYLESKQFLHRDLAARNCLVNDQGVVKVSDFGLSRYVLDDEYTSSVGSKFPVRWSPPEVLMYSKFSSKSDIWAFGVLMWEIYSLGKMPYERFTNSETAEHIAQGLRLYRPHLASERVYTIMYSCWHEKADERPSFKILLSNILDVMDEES

Structure (SMILES) | IC50 (Ramos cells) | IC50 (BTK [1]) | Btk occupancy in vivo (Btk [2]; 5 mg/kg single oral dose) | concentration sufficient to fully occupy the active site of Btk (BTK [3]) | Btk occupancy in vivo (Btk [2]; 10 mg/kg single oral dose)
C=CC(=O)N1CCCC1Cn1nc(-c2ccc(Oc3cccc(OC)c3F)cc2)c2cncc(OC)c21 (centres unmarked) [Compound 91, 1-(2-((3-(4-(2-fluoro-3-methoxyphenoxy)phenyl)-7-methoxy-1H-pyrazolo[4,3-c]pyridin-1-yl)methyl)pyrrolidin-1-yl)prop-2-en-1-one] |  | < 10 nM | full occupancy |  | 
C=CC(=O)N1CC[C@@H](n2nc(-c3ccc(Oc4cccc(OC)c4F)cc3)c3cnccc32)C1 [Compound 3, (R)-1-(3-(3-(4-(2-fluoro-3-methoxyphenoxy)phenyl)-1H-pyrazolo[4,3-c]pyridin-1-yl)pyrrolidin-1-yl)prop-2-en-1-one] |  | < 10 nM |  | 50 nM | full occupancy
C=CC(=O)N1CCC[C@@H](n2nc(-c3ccc(Oc4cccc(OC)c4Cl)cc3)c3cnccc32)C1 [Compound 2, (R)-1-(3-(3-(4-(2-chloro-3-methoxyphenoxy)phenyl)-1H-pyrazolo[4,3-c]pyridin-1-yl)piperidin-1-yl)prop-2-en-1-one] |  | < 10 nM |  | 100 nM | full occupancy
C=CC(=O)N1CC[C@@H](n2nc(-c3ccc(Oc4ccccc4)c(F)c3)c3cnccc32)C1 [Compound 61, (R)-1-(3-(3-(3-fluoro-4-phenoxyphenyl)-1H-pyrazolo[4,3-c]pyridin-1-yl)pyrrolidin-1-yl)prop-2-en-1-one] | 100 to 1000 nM | < 10 nM |  |  | 
C=CC(=O)N1CC[C@@H](n2nc(-c3ccc(Oc4ccccc4)c(Cl)c3)c3cnccc32)C1 [Compound 11, (R)-1-(3-(3-(3-chloro-4-phenoxyphenyl)-1H-pyrazolo[4,3-c]pyridin-1-yl)pyrrolidin-1-yl)prop-2-en-1-one] | 100 to 1000 nM | < 10 nM |  |  | 
C=CC(=O)N1CC[C@@H](n2nc(-c3ccc(Oc4cccc(F)c4Cl)cc3)c3cnccc32)C1 [Compound 4, (R)-1-(3-(3-(4-(2-chloro-3-fluorophenoxy)phenyl)-1H-pyrazolo[4,3-c]pyridin-1-yl)pyrrolidin-1-yl)prop-2-en-1-one] |  | < 10 nM |  | 100 nM | full occupancy
C=CC(=O)N1CC[C@@H](n2nc(-c3ccc(Sc4cccc(F)c4)cc3)c3cnccc32)C1 [Compound 58, (R)-1-(3-(3-(4-((3-fluorophenyl)thio)phenyl)-1H-pyrazolo[4,3-c]pyridin-1-yl)pyrrolidin-1-yl)prop-2-en-1-one] | 10 to 100 nM | < 10 nM |  |  | 
C=CC(=O)N1CCC[C@@H](n2nc(-c3ccc(Oc4cccc(OC)c4F)cc3)c3cncc(OCC)c32)C1 [Compound 73, (R)-1-(3-(7-ethoxy-3-(4-(2-fluoro-3-methoxyphenoxy)phenyl)-1H-pyrazolo[4,3-c]pyridin-1-yl)piperidin-1-yl)prop-2-en-1-one] |  | < 10 nM | full occupancy | 100 nM | 

The next lines start with results.

IC50 (Ramos cells) | IC50 (BTK [1]) | Btk occupancy in vivo (Btk [2]; 5 mg/kg single oral dose) | concentration sufficient to fully occupy the active site of Btk (BTK [3]) | Structure (SMILES) | Btk occupancy in vivo (Btk [2]; 10 mg/kg single oral dose)
10 to 100 nM | < 10 nM |  |  | C=CC(=O)N1CCC[C@@H](n2nc(-c3ccc(Oc4cccc(Cl)c4F)cc3)c3cnccc32)C1 [Compound 20, (R)-1-(3-(3-(4-(3-chloro-2-fluorophenoxy)phenyl)-1H-pyrazolo[4,3-c]pyridin-1-yl)piperidin-1-yl)prop-2-en-1-one] | 
100 to 1000 nM | < 10 nM |  |  | C=CC(=O)N1CC[C@@H](n2nc(-c3ccc(Oc4cccc(F)c4)cc3)c3cnccc32)C1 [Compound 63, (R)-1-(3-(3-(4-(3-fluorophenoxy)phenyl)-1H-pyrazolo[4,3-c]pyridin-1-yl)pyrrolidin-1-yl)prop-2-en-1-one] | 
10 to 100 nM | < 10 nM |  | 100 nM | C=CC(=O)N1CCC[C@@H](n2nc3ccncc3c2-c2ccc(Oc3cccc(Cl)c3Cl)cc2)C1 [Compound 43, (R)-1-(3-(3-(4-(2,3-dichlorophenoxy)phenyl)-2H-pyrazolo[4,3-c]pyridin-2-yl)piperidin-1-yl)prop-2-en-1-one] | 
10 to 100 nM | < 10 nM |  |  | C=CC(=O)N1CC[C@@H](n2nc(-c3ccc(Oc4cccc(OC)c4)cc3)c3cnccc32)C1 [Compound 64, (R)-1-(3-(3-(4-(3-methoxyphenoxy)phenyl)-1H-pyrazolo[4,3-c]pyridin-1-yl)pyrrolidin-1-yl)prop-2-en-1-one] | 
10 to 100 nM | < 10 nM |  | 100 nM | C=CC(=O)N1CCC[C@@H](n2nc(-c3ccc(Oc4cccc(F)c4F)cc3)c3cnccc32)C1 [Compound 17, (R)-1-(3-(3-(4-(2,3-difluorophenoxy)phenyl)-1H-pyrazolo[4,3-c]pyridin-1-yl)piperidin-1-yl)prop-2-en-1-one] | 
10 to 100 nM | < 10 nM |  | 100 nM | C=CC(=O)N1CC[C@@H](n2nc3ccncc3c2-c2ccc(Oc3cccc(Cl)c3Cl)cc2)C1 [Compound 41, (R)-1-(3-(3-(4-(2,3-dichlorophenoxy)phenyl)-2H-pyrazolo[4,3-c]pyridin-2-yl)pyrrolidin-1-yl)prop-2-en-1-one] | 
100 to 1000 nM | < 10 nM |  |  | C=CC(=O)N1CCC[C@@H](n2nc(-c3ccc(Oc4cccc(F)c4)cc3)c3cnccc32)C1 [Compound 62, (R)-1-(3-(3-(4-(3-fluorophenoxy)phenyl)-1H-pyrazolo[4,3-c]pyridin-1-yl)piperidin-1-yl)prop-2-en-1-one] | 
10 to 100 nM | < 10 nM |  |  | C=CC(=O)N1CC[C@@H](n2nc(-c3ccc(Oc4cccc(F)c4F)cc3)c3cnccc32)C1 [Compound 18, (R)-1-(3-(3-(4-(2,3-difluorophenoxy)phenyl)-1H-pyrazolo[4,3-c]pyridin-1-yl)pyrrolidin-1-yl)prop-2-en-1-one] | 
 | < 10 nM |  | 100 nM | C=CC(=O)N1CCC[C@@H](n2nc(-c3ccc(Oc4cccc(OC)c4F)cc3)c3cnccc32)C1 [Compound 71, (R)-1-(3-(3-(4-(2-fluoro-3-methoxyphenoxy)phenyl)-1H-pyrazolo[4,3-c]pyridin-1-yl)piperidin-1-yl)prop-2-en-1-one] | full occupancy
10 to 100 nM | < 10 nM |  |  | C=CC(=O)N1CC[C@@H](n2nc(-c3ccc(Oc4cccc(Cl)c4F)cc3)c3cnccc32)C1 [Compound 19, (R)-1-(3-(3-(4-(3-chloro-2-fluorophenoxy)phenyl)-1H-pyrazolo[4,3-c]pyridin-1-yl)pyrrolidin-1-yl)prop-2-en-1-one] | 
